According to US7795222B2, “Methods for treating a corneal disorder and promoting skin wound healing” (Santen Pharmaceutical Co., Ltd., priority 2001, dated 2010):
Where no end group is shown, it is not given here.

System: corneal epithelium
Assay: Action for extending corneal epithelium (in vitro), corneal blocks in tissue culture
Format: cell-based, male Japanese White rabbit
Conditions: for Extension ratio (%): 24 hours culture, control = 100%, mean of six sections; for activity in corneal epithelium extension test: in combination with substance P; for influence on the extension of corneal epithelium: peptide alone
Method: (1) Action For Extending Corneal Epithelium (In Vitro)
Using the cornea of a male Japanese White rabbit and according to the method of Nishida et al. (J. Cell Biol., 97, 1653-1657 (1983)), the length of corneal epithelium extension of the corneal section in a tissue culture system was used as a marker to examine the influence on corneal epithelium extension.
Corneal blocks cut off from rabbit corneal section (6 blocks per group) were cultured in culture media (TC-199) containing a test compound under conditions of 5% CO2 at 37° C. for 24 hours. After culturing, the corneal blocks were fixed in a mix solution of ethanol-glacial acetic acid (volume ratio: 95:5) and then embedded in paraffin to prepare sections. After paraffin was removed from the sections, the resulting sections were stained with hematoxylin-eosin to examine the extended length of the corneal epithelial cell layer with a microscope. As a control, the blocks cultured in the same manner in the culture media without any test compound were used.
Herein, the extension ratio in the table is the mean of six sections per group, as calculated when the elongated length of the control group was defined as the basal line (100%).

[1] = test peptide 1 nM + substance P (20 μM)

Row | Substance | Extension ratio (%) [1] [%] | Extension ratio (%) (test peptide alone, 1 nM) | other results
1 | ASSSRRAP (Human) [Ala-Ser-Ser-Ser-Arg-Arg-Ala-Pro] | 134 | – | –
2 | GSSSRAAAP (Human) [Gly-Ser-Ser-Ser-Arg-Ala-Ala-Ala-Pro] | 139 | 100 | –
3 | GSSSRAAP (Human) [Gly-Ser-Ser-Ser-Arg-Ala-Ala-Pro] | 150 | – | –
4 | GSSSRR | 142 | 94 | –
5 | GSSSRRAP (Human) [Gly-Ser-Ser-Ser-Arg-Arg-Ala-Pro] | 140 | 97 | activity in corneal epithelium extension test: the activity still remained
6 | GYGSSSRRAPQT (Human) [Gly-Tyr-Gly-Ser-Ser-Ser-Arg-Arg-Ala-Pro-Gln-Thr, the peptide composing the domain C of IGF-I] | 134 | 104 | activity in corneal epithelium extension test: had the activity
7 | Gly-Ser-Ser-Ser-Arg (GSSSR; Human) | 135 | 101 | –
8 | Phe-Gly-Leu-Met-NH2 (FGLM-NH2) [tetrapeptide on the C terminal of substance P, reference compound] | – | – | influence on the extension of corneal epithelium: not observed to have any influence; Extension ratio (%) (test peptide alone, 20 μM): 99%
9 | Ser-Ser-Ser-Arg (SSSR; Human) | 138 | 101 | Extension ratio (%) (test peptide 1 nM + FGLM (20 μM)): 145%
10 | Ser-Ser-Ser-Arg-Arg (SSSRR; Human) | 136 | 98 | –
11 | Substance P: polypeptide consisting of 11 amino acids (RPKPQQFFGLM-NH2; ends and bridges not checked; UniProt P20366 58-68, looked up) [reference compound] | – | – | influence on the extension of corneal epithelium: not observed to have any influence; Extension ratio (%) (test peptide alone, 20 μM): 94%
